Results taken from patent US20230081390A1, “INHIBITORS OF RAF KINASES” (Kinnate Biopharma Inc., priority 2019, published 2023).

Target: human RAF1 (Homo sapiens, UniProt P04049)
Assay: Protein kinase assay (33P-ATP filter binding), human RAF1, 10-dose IC50
Assay type: biochemical
Settings: MEK1 (K97R) substrate 3 micromolar, ATP 10 micromolar, read-out: RAF-1 IC50
Method: In brief, for each reaction, kinase and substrate were mixed in a buffer containing 20 mM HEPES (pH 7.5), 10 mM MgCl2, 1 mM EGTA, 0.02% Brij35, 0.02 mg/mL BSA, 0.1 mM Na3VO4, 2 mM DTT, and […]. All compounds were solubilized in DMSO. Compounds were then added to each reaction mixture via acoustic dispense using an ECHO 550 nanoliter dispenser. For human RAF1 testing, human MEK1 (K97R) was used as a substrate at a concentration of 3 micromolar, with a final ATP concentration of 10 micromolar. […] Reactions were carried out at room temperature for 2 hr and spotted onto P81 ion exchange cellulose chromatography paper (Reaction Biology). […] The percent remaining kinase activity relative to a vehicle-containing (DMSO) kinase reaction was calculated for each kinase/inhibitor pair. IC50 values were calculated using Prism 5 (GraphPad).

Chain of human RAF1 (P04049 whole entry): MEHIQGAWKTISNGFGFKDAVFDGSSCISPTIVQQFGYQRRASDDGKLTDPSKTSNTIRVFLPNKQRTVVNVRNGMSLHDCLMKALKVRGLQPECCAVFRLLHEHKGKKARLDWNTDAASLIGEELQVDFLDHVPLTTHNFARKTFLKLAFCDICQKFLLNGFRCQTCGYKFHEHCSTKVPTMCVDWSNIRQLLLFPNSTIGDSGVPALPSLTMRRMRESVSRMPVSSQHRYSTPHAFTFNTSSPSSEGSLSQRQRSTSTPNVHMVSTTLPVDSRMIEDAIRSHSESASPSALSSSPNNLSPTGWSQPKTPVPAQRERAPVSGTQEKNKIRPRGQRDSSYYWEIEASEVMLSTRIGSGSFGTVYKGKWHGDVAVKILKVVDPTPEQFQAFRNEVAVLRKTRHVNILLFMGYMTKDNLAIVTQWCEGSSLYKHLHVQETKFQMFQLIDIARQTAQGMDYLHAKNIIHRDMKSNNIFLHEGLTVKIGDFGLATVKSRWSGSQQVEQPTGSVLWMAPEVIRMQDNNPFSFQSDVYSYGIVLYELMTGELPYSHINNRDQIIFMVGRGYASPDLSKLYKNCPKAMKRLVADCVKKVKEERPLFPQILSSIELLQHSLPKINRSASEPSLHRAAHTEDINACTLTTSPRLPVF

IC50 | Compound
< 10 nM | Cc1cc(F)c(NC(=O)N2CCCC3C2C3C(F)(F)F)cc1-c1cc(OCCO)nc(N2CCOCC2)c1 (single isomer, unassigned) [Example 110, N-[2-fluoro-5-[2-(2-hydroxyethoxy)-6-(morpholin-4-yl)pyridin-4-yl]-4-methylphenyl]-7-(trifluoromethyl)-2-azabicyclo[4.1.0]heptane-2-carboxamide]
< 10 nM | Cc1ccc(NC(=O)N2CCC(CC(F)(F)F)C2)cc1-c1cnc(OC2CCOCC2)c(N2CCOCC2)c1 (stereo not drawn) [Example 123, N-[4-methyl-3-[5-(morpholin-4-yl)-6-(oxan-4-yloxy)pyridin-3-yl]phenyl]-3-(2,2,2-trifluoroethyl)pyrrolidine-1-carboxamide]
< 10 nM | Cc1ccc(NC(=O)N2CC[C@@H](CC(F)(F)F)C2)cc1-c1cc(OC2CCC(C)(O)C2)nc(N2CCOCC2)c1 (stereo partly drawn) [Example 223, (3S)-N-(3-[2-[(3-hydroxy-3-methylcyclopentyl)oxy]-6-(morpholin-4-yl)pyridin-4-yl]-4-methylphenyl)-3-(2,2,2-trifluoroethyl)pyrrolidine-1-carboxamide]
< 10 nM | Cc1ccc(NC(=O)N2CCC(CC(F)(F)F)C2)cc1-c1cc(OC2CCOCC2)nc(N2CCOCC2)c1 (stereo not drawn) [Example 187, N-(4-methyl-3-(2-morpholino-6-((tetrahydro-2H-pyran-4-yl)oxy)pyridin-4-yl)phenyl)-3-(2,2,2-trifluoroethyl)pyrrolidine-1-carboxamide]
< 10 nM | Cc1cc(F)c(NC(=O)N2CCC(C(C)C(F)(F)F)C2)cc1-c1cc(OCCO)nc(N2CCOCC2)c1 (single isomer, unassigned) [Example 103, N-[2-fluoro-5-[2-(2-hydroxyethoxy)-6-(morpholin-4-yl)pyridin-4-yl]-4-methylphenyl]-3-(1,1,1-trifluoropropan-2-yl)pyrrolidine-1-carboxamide]
< 10 nM | Cc1ccc(NC(=O)N2CC[C@H](OC(F)(F)F)C2)cc1-c1cc(O[C@@H](C)CO)nc(N2CCOCC2)c1 [Example 151, (3S)-N-[3-(2-[[(2S)-1-hydroxypropan-2-yl]oxy]-6-(morpholin-4-yl)pyridin-4-yl)-4-methylphenyl]-3-(trifluoromethoxy)pyrrolidine-1-carboxamide]
< 10 nM | Cc1cc(F)c(NC(=O)N2CC[C@@]3(C2)CC(F)(F)C3(F)F)cc1-c1cc(OCCO)nc(N2CCOCC2)c1 (single isomer, unassigned) [Example 106]
< 10 nM | Cc1cc(F)c(NC(=O)N2CC[C@@H](C(F)(F)F)C2)cc1-c1cnc(OC2CCOCC2)c(N2CCOCC2)c1 (single isomer, unassigned) [Example 31]
< 10 nM | C/C(=C1/CCN(C(=O)Nc2cc(-c3cc(OCCO)nc(N4CCOCC4)c3)c(C)cc2F)C1)C(F)(F)F [Example 95, (3E)-N-[2-fluoro-5-[2-(2-hydroxyethoxy)-6-(morpholin-4-yl)pyridin-4-yl]-4-methylphenyl]-3-(1,1,1-trifluoropropan-2-ylidene)pyrrolidine-1-carboxamide]
< 10 nM | Cc1cc(F)c(NC(=O)N2CCC(CC(F)(F)F)C2)cc1-c1cc(OCCO)nc(N2CCOCC2)c1 (stereo in doubt) [Example 37, (3R)-N-[2-fluoro-5-[2-(2-hydroxyethoxy)-6-(morpholin-4-yl)pyridin-4-yl]-4-methylphenyl]-3-(2,2,2-trifluoroethyl)pyrrolidine-1-carboxamide]
< 10 nM | Cc1ccc(NC(=O)N2CC[C@@H](CC(F)(F)F)C2)cc1-c1cc(OC[C@@H](C)O)nc(N2CC3(COC3)C2)c1 [Example 229, (3S)-N-(3-[2-[(2R)-2-hydroxypropoxy]-6-[2-oxa-6-azaspiro[3.3]heptan-6-yl]pyridin-4-yl]-4-methylphenyl)-3-(2,2,2-trifluoroethyl)pyrrolidine-1-carboxamide]
< 10 nM | Cc1cc(F)c(NC(=O)N2CC[C@@H](C(F)(F)C(F)(F)F)C2)cc1-c1cc(OCCO)nc(N2CCOCC2)c1 (single isomer, unassigned) [Example 84]
< 10 nM | Cc1cc(F)c(NC(=O)N2CC[C@H](OC(F)(F)F)C2)cc1-c1cnc(OC2CCOCC2)c(N2CCOCC2)c1 [Example 127, (3S)-N-[2-fluoro-4-methyl-5-[5-(morpholin-4-yl)-6-(oxan-4-yloxy)pyridin-3-yl]phenyl]-3-(trifluoromethoxy)pyrrolidine-1-carboxamide]
< 10 nM | Cc1ccc(NC(=O)N2CCC(=C3CC3)C2)cc1-c1cc(OCCO)nc(N2CCOCC2)c1 [Example 145, 3-cyclopropylidene-N-[3-[2-(2-hydroxyethoxy)-6-(morpholin-4-yl)pyridin-4-yl]-4-methylphenyl]pyrrolidine-1-carboxamide]
< 10 nM | Cc1cc(F)c(NC(=O)N2CCO[C@@H](C(F)(F)F)C2)cc1-c1cnc(OC2CCOCC2)c(N2CCOCC2)c1 [Example 87, (2R)-N-[2-fluoro-4-methyl-5-[5-(morpholin-4-yl)-6-(oxan-4-yloxy)pyridin-3-yl]phenyl]-2-(trifluoromethyl)morpholine-4-carboxamide]
< 10 nM | Cc1ccc(NC(=O)N2CC[C@H](OC(F)(F)F)C2)cc1-c1cc(OC[C@@H](O)CO)nc(N2CCOCC2)c1 [Example 143, (3S)-N-(3-[2-[(2S)-2,3-dihydroxypropoxy]-6-(morpholin-4-yl)pyridin-4-yl]-4-methylphenyl)-3-(trifluoromethoxy)pyrrolidine-1-carboxamide]
< 10 nM | Cc1cc(F)c(NC(=O)N2CCO[C@@H](C(C)(F)F)C2)cc1-c1cc(OCCO)nc(N2CCOCC2)c1 (single isomer, unassigned) [Example 59]
< 10 nM | Cc1cc(F)c(NC(=O)N2CC[C@@H](CC(F)(F)F)C2)cc1-c1cc(OCCO)nc(N2CCOCC2)c1 (single isomer, unassigned) [Example 75]
< 10 nM | Cc1cc(F)c(NC(=O)N2CC[C@H](C(F)(F)F)C2)cc1-c1cnc(OCCO)c(N2CCOCC2)c1 [Example 13, (3S)-N-[2-fluoro-5-[6-(2-hydroxyethoxy)-5-(morpholin-4-yl)pyridin-3-yl]-4-methylphenyl]-3-(trifluoromethyl)pyrrolidine-1-carboxamide]
< 10 nM | Cc1ccc(NC(=O)N2CCC(CC(F)(F)F)C2)cc1-c1cc(O[C@@H]2CCN(C)C2)nc(N2CCOCC2)c1 (stereo partly drawn) [Example 202, N-(4-methyl-3-(2-(((R)-1-methylpyrrolidin-3-yl)oxy)-6-morpholinopyridin-4-yl)phenyl)-3-(2,2,2-trifluoroethyl)pyrrolidine-1-carboxamide]
< 10 nM | Cc1cc(F)c(NC(=O)N2CCO[C@@H](C(C)(F)F)C2)cc1-c1cc(OCCO)nc(N2CCOCC2)c1 (single isomer, unassigned) [Example 58]
< 10 nM | Cc1cc(F)c(NC(=O)N2CC[C@]3(C2)CC3(F)F)cc1-c1cc(OCCO)nc(N2CCOCC2)c1 (single isomer, unassigned) [Example 62]
< 10 nM | Cc1ccc(NC(=O)N2CC[C@H](SC(F)(F)F)C2)cc1-c1cnc(OC2CCOCC2)c(N2CCOCC2)c1 [Example 132, (3S)-N-[4-methyl-3-[5-(morpholin-4-yl)-6-(oxan-4-yloxy)pyridin-3-yl]phenyl]-3-[(trifluoromethyl)sulfanyl]pyrrolidine-1-carboxamide]
< 10 nM | C/C(C#N)=C1/CCN(C(=O)Nc2cc(-c3cc(OCCO)nc(N4CCOCC4)c3)c(C)cc2F)C1 [Example 98, (3E)-3-(1-cyanoethylidene)-N-[2-fluoro-5-[2-(2-hydroxyethoxy)-6-(morpholin-4-yl)pyridin-4-yl]-4-methylphenyl]pyrrolidine-1-carboxamide]
< 10 nM | Cc1cc(F)c(NC(=O)N2CCC3C2C3C(F)(F)F)cc1-c1cc(OCCO)nc(N2CCOCC2)c1 (single isomer, unassigned) [Example 69, N-[2-fluoro-5-[2-(2-hydroxyethoxy)-6-(morpholin-4-yl)pyridin-4-yl]-4-methylphenyl]-6-(trifluoromethyl)-2-azabicyclo[3.1.0]hexane-2-carboxamide]
< 10 nM | Cc1ccc(NC(=O)N2CC[C@@H](CC(F)(F)F)C2)cc1-c1cc(OC[C@@H](C)O)nc(N2CCO[C@@H](C)C2)c1 [Example 227, (3S)-N-(3-[2-[(2R)-2-hydroxypropoxy]-6-[(2S)-2-methylmorpholin-4-yl]pyridin-4-yl]-4-methylphenyl)-3-(2,2,2-trifluoroethyl)pyrrolidine-1-carboxamide]
< 10 nM | Cc1ccc(NC(=O)N2CC[C@@H](CC(F)(F)F)C2)cc1-c1cc(OC2CCC(C)(O)CC2)nc(N2CCOCC2)c1 (stereo partly drawn) [Example 211, (3S)-N-(3-[2-[(4-hydroxy-4-methylcyclohexyl)oxy]-6-(morpholin-4-yl)pyridin-4-yl]-4-methylphenyl)-3-(2,2,2-trifluoroethyl)pyrrolidine-1-carboxamide (cis)]
< 10 nM | Cc1cc(F)c(NC(=O)N2CC=C(C(F)(F)F)C2)cc1-c1cc(OCCO)nc(N2CCOCC2)c1 [Example 72, N-[2-fluoro-5-[2-(2-hydroxyethoxy)-6-(morpholin-4-yl)pyriidn-4-yl]-4-methylphenyl]-3-(trifluoromethyl)-2,5-dihydropyrrole-1-carboxamide]
< 10 nM | Cc1ccc(NC(=O)N2CC[C@@H](CC(F)(F)F)C2)cc1-c1cc(O[C@@H]2CC[C@H](O)C2)nc(N2CCOCC2)c1 [Example 210, (3S)-N-[3-(2-[[(1R,3S)-3-hydroxycyclopentyl]oxy]-6-(morpholin-4-yl)pyridin-4-yl)-4-methylphenyl]-3-(2,2,2-trifluoroethyl)pyrrolidine-1-carboxamide]
< 10 nM | Cc1ncc(NC(=O)N2CC[C@H](C(F)(F)F)C2)cc1-c1cnc(OCCO)c(N2CCOCC2)c1 (single isomer, unassigned) [Example 17]
